In data set [1] the target is T1, 5-HT2A (Homo sapiens, UniProt P28223). In words: Radioreceptor competitive binding, [3H]ketanserin (4-PAT series). To be noted: 2.0 nM [3H]ketanserin; HCl salts; read-out: Affinity (Ki ± SEM) 5-HT2A. The procedure: (§1) Radioreceptor competitive binding assays were carried out to assess the binding affinities of the compounds of the invention. Radioligand competitive displacement binding assays were performed in 96-well plates, using 3-5 μg of protein from membrane samples per well. Each concentration point in the binding experiments was performed in triplicates of samples, and each experiment was performed a minimum of three times. […] Non-specific binding was determined in the presence of or 10 μM mianserin for all three 5-HT2 receptors or 10 μM triprolidine for H1 receptors. Radioreceptor binding assay mixtures were incubated for 1.0 hour at 37° C., with termination by rapid filtration through Whatman GF/B filters using a 96-well cell harvester (Tomtec, Hamden, Conn.), which were subsequently washed five times with 50 mM Tris-HCl at room temperature. Filters containing bound [^3H]radioligand were dried, placed in vials containing 2 mL scintillation cocktail (ScintiVerse), allowed to equilibrate overnight, and then were counted for ^3H-induced scintillation using a Beckman-Coulter LS6500 counter.
T1 sequence (P28223 whole entry): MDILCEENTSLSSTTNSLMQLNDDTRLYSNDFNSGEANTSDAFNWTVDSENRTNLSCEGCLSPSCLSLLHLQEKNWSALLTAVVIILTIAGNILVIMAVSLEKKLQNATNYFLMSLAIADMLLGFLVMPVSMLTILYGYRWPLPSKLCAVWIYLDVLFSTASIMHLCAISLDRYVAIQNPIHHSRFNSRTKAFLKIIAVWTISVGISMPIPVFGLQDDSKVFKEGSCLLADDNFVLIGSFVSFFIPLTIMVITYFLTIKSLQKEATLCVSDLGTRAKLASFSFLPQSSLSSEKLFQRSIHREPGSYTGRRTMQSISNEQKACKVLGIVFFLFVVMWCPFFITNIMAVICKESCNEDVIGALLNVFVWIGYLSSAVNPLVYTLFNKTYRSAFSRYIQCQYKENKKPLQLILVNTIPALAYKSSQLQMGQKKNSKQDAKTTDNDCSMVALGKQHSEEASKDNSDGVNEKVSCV
(§2) Competition binding data were analyzed using nonlinear regression curve-fitting algorithms in GraphPad Prism, 6 for Windows (San Diego, Calif.). […] Ligand affinity was expressed as an approximation of Ki values by conversion of the IC50 value using the Cheng-Prusoff equation […] where L was the concentration of radioligand.

Another data set has as its target H1 (Homo sapiens, UniProt P35367). The experiment in a line: Radioreceptor competitive binding, [3H]mepyramine (4-PAT series). To be noted: for Ki: 1.0 nM [3H]mepyramine, read-out: Affinity (Ki ± SEM) H1. The procedure: as §1, §2
Data set [2] concerns the target T2, 5-HT2B (Homo sapiens, UniProt P41595). The experiment in a line: Radioreceptor competitive binding, [3H]mesulergine (4-PAT series). To be noted: 1.95 nM [3H]mesulergine; read-out: Affinity (Ki ± SEM) 5-HT2B. On the procedure: as §1, §2
In data set [3] the target is T3, 5-HT2C (Homo sapiens, UniProt P28335).
T3 sequence (P28335 33-458): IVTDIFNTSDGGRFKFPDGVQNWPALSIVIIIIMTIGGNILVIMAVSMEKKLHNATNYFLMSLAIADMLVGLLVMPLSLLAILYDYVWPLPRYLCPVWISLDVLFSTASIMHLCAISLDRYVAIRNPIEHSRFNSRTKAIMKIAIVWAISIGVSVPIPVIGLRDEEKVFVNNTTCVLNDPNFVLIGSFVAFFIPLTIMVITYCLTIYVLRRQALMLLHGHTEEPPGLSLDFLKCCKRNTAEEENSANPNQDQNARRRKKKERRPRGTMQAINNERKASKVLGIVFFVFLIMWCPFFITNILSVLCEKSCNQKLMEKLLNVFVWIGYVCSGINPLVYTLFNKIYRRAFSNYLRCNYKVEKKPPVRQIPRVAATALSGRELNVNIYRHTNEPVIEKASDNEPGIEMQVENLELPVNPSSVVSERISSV
The description is as above. To be noted: read-out: Affinity (Ki ± SEM) 5-HT2C. The procedure: as §1, §2

The target of data set [4] is T1, 5-HT2A. More on the design: expressed in transfected cells; host or cells: HEK293, transient. The note with it: cited from earlier work.
Data set [5] has as its target T2, 5-HT2B. More on the design: expressed in transfected cells; host or cells: HEK293, transient. The note with it: cited from earlier work.
Data set [6] has as its target T3, 5-HT2C. In words: Receptor-mediated inositol phosphate hydrolysis, transfected HEK293 cells. It is filed as cell-based. Also on record: expressed in transfected cells; host or cells: HEK293, transient. On the procedure: (§3) In brief, transiently transfected HEK293 cells were labeled with 1 μCi/ml [3H]myoinositol and seeded into 48-well plates. Cells were treated with test compounds for 30 minutes. The reaction was stopped by addition of 50 mM formic acid. Anion-exchange columns (Bio-Rad Laboratories, Hercules, Calif.) were used to bind and collect [3H]inositol phosphates. 3H-induced scintillations then were measured. Each experiment included a minimum of triplicate measurements for each concentration of test compound, and each experiment was performed a minimum of three times.

For data set [7], the target named is T2, 5-HT2B. The description is as above. Also on record: expressed in transfected cells; host or cells: HEK293, transient. It is filed as cell-based. The procedure: as §3, with “Functional responses of analog 7l and 5-HT (positive control agonist, data not shown) by measuring 5-HT2 and H1 receptor-mediated inositol phosphate hydrolysis were assessed. In” for “In”

The target in data set [8] is T1, 5-HT2A. Described as above. It is filed as cell-based. To be noted: concentrations up to 10 μM. More on the design: expressed in transfected cells; host or cells: HEK293, transient. The procedure: as §3, with “Functional responses of analog 7l and 5-HT (positive control agonist, data not shown) by measuring 5-HT2 and H1 receptor-mediated inositol phosphate hydrolysis were assessed. In” for “In”

A further data set deals with T4, histamine H1 receptor (Homo sapiens, UniProt P35367).
T4 construct: expressed in transfected cells; host or cells: HEK293, transient
T4 sequence (P35367 whole entry): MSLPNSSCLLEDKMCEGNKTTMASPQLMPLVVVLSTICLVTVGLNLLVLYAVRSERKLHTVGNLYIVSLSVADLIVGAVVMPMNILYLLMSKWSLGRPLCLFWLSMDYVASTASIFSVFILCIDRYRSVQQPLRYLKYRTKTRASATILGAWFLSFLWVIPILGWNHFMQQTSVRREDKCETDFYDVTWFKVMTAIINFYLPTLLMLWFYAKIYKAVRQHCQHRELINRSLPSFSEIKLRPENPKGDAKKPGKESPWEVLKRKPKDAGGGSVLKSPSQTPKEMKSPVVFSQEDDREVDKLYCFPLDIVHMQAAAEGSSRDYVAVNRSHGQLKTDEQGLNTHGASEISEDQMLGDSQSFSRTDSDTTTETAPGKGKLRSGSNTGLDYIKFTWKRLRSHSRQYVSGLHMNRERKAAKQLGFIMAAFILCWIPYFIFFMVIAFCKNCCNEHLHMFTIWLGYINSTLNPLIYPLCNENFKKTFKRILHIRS
The data set is described as above. It counts as cell-based. The procedure: as §3, with “Functional responses of analog 7l and 5-HT (positive control agonist, data not shown) by measuring 5-HT2 and H1 receptor-mediated inositol phosphate hydrolysis were assessed. In” for “In”

A further data set relates to C57BI/6J mice. The experiment in a line: DOI-elicited head-twitch response (HTR) in C57BI/6J mice. The text has this: The 5-HT2A receptor is a predominant 5-HT receptor in the cortex, and serves important excitation modulation functions on glutamate pyramidal and GABA neurons.
In data set [9] the target is T5, human 5-HT7 receptors (5-HT7a) (Homo sapiens, UniProt P34969).
T5 construct: expressed in transfected cells
T5 sequence (P34969 1-445 isoform P34969-2): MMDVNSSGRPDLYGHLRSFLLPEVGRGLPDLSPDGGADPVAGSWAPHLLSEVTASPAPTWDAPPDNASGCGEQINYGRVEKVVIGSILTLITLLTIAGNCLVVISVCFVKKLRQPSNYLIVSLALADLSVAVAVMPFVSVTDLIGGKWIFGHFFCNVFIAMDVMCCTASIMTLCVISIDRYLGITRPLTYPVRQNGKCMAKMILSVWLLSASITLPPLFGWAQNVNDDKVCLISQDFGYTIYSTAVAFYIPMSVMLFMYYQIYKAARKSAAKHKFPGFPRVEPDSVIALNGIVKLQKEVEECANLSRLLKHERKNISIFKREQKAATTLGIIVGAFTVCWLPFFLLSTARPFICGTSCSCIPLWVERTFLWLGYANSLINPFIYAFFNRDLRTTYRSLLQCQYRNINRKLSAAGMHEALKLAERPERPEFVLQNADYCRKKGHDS
In words: Radioligand competition binding ([3H]5-CT), HEK293 cells stably expressing human 5-HT7 receptors. The note with it: Affinity Ki 5-HT7, our unreported observations. From the text: FIGS. 4A-4C show the effects of 5-FPT are stereospecific. […] Data are expressed as the mean±SEM.
In general terms: In a radioligand displacement assay an active substance lowers the binding of a labelled ligand.

The values that follow come from US11021435B2, “Serotonin receptor-targeting compounds and methods” (priority 2014, dated 2021).

“Also recorded” adds a separate entry of the source.

Sequence of H1 (P35367 whole entry): as the sequence (P35367 whole entry) above
T2 sequence (P41595 whole entry): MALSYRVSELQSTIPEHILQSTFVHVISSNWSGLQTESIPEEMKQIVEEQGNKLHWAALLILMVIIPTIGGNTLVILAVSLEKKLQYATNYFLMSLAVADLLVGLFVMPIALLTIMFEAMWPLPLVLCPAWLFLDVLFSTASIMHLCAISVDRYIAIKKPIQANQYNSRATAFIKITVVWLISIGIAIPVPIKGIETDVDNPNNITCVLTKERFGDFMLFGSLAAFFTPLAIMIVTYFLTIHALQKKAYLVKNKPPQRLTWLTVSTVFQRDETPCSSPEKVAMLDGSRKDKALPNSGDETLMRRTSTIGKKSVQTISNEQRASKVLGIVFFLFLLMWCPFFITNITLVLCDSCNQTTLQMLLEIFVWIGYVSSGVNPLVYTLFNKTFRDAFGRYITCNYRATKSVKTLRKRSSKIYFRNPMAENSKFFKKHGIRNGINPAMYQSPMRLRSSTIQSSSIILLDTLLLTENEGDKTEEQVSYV

Take `COc1ccc2c(c1)[C@@H](c1cccc(Cl)c1)C[C@H](N(C)C)C2` (single isomer, unassigned) [Compound 7k, Trans-4-(3′-Chlorophenyl)-6-methoxy-N,N-dimethyl-1,2,3,4-tetrahydronaphthalen-2-amine]: the Ki (as a rule, the equilibrium dissociation constant of an inhibitor or competing ligand from its target) at 5-HT2A [1] was found to be 350 ± 16 nM; at H1 it was 740 ± 80 nM; at 5-HT2B [2] it was 310 ± 41 nM; on 5-HT2C [3], 280 ± 30 nM.

For the compound `COc1cc2c(cc1Cl)C[C@@H](N(C)C)C[C@@H]2c1cccc(Br)c1` (single isomer, unassigned) [Compound 7j, Trans-4-(3′-Bromophenyl)-6-methoxy-7-chloro-N,N-dimethyl-1,2,3,4-tetrahydronaphthalen-2-amine], the inhibitory constant (Ki) on 5-HT2A [1] was 61 ± 15 nM; on H1, 230 ± 33 nM; on 5-HT2B [2] it was 50 nM; at 5-HT2C [3] it was 130 ± 43 nM.

`COc1cc2c(cc1Cl)C[C@@H](N(C)C)C[C@@H]2c1ccccc1` (single isomer, unassigned): the inhibition constant Ki stood at 160 ± 24 nM on 5-HT2A [1], 1.2 ± 0.6 nM at H1, 17.3 ± 5.33 nM at 5-HT2B [2] and 24 ± 2.5 nM at 5-HT2C [3].

Turning to `COc1cc2c(cc1Cl)C[C@@H](N(C)C)C[C@@H]2c1cccc(Br)c1` (single isomer, unassigned) [Compound 7i, Trans-4-(3′-Bromophenyl)-6-methoxy-7-chloro-N,N-dimethyl-1,2,3,4-tetrahydronaphthalen-2-amine], the Ki at 5-HT2A [1] stood at 79 ± 14 nM; on H1 it was 650 ± 21 nM; on 5-HT2B [2], 169 ± 27 nM; at 5-HT2C [3], 350 ± 130 nM.

`C[C@H](N)Cn1ccc2cc(F)c(Cl)cc21` [Ro60-0175]: the “Activation of 5-HT2A receptors by reported selective 5-HT2C agonists” value at 5-HT2A [4] is “also activate”. In addition, the “Activation of 5-HT2B receptors by reported selective 5-HT2C agonists” value on 5-HT2B [5] is reported as “also activate”.

For the compound `COc1cc2c(cc1Cl)C[C@@H](N(C)C)C[C@H]2c1ccccc1` (single isomer, unassigned) [Compound 7d, Cis-4-Phenyl-6-methoxy-7-chloro-N,N-dimethyl-1,2,3,4-tetrahydronaphthalen-2-amine], the inhibitory constant (Ki) worked out at 320 ± 42 nM on 5-HT2A [1], 10.8 ± 0.6 nM at H1, 43 ± 5 nM on 5-HT2B [2] and 96 ± 18 nM at 5-HT2C [3].

`COc1ccc2c(c1)[C@@H](c1cccc(Cl)c1)C[C@H](N(C)C)C2` (single isomer, unassigned) [Compound 7l, Trans-4-(3′-Chlorophenyl)-6-methoxy-N,N-dimethyl-1,2,3,4-tetrahydronaphthalen-2-amine]: the maximal response (Emax) (usually the greatest response seen or fitted, relative to the assay's reference) on 5-HT2C [6] (HEK293, read-out: Efficacy 5-HT2C, EMAX) was 73 ± 6%. Also, the EC50 – broadly, the midpoint of the concentration-response curve – on 5-HT2C [6] (read-out: Function 5-HT2C, EC50 (agonist potency)) is 19 ± 1 nM. Further, the inhibition constant (Ki) on 5-HT2A [1] turned out to be 35 ± 3 nM; on H1 it was 86 ± 18 nM; on 5-HT2B [2], 65 nM; on 5-HT2C [3], 17 ± 1 nM. Also, the “Efficacy 5-HT2B, Imax” value on 5-HT2B [7] (inverse agonist) is listed as “Imax = −17 ± 4.6%”. In addition, the IC50 (commonly the concentration that gives 50% inhibition) at 5-HT2B [7] (mean ± S.E.M.) was found to be 51 nM; against histamine H1 receptor (mean ± S.E.M.) it was 48 nM. Further, the “Function 5-HT2A (activation)” value on 5-HT2A [8] is listed as “did not activate”; on 5-HT2A [8] (listed as 71) it was “No”. Moreover, at H1, the “Reduced affinity at H1 receptors compared to unsubstituted PAT (7b)” value is given as above 40 fold. Besides, the “Efficacy H1, Imax” value at histamine H1 receptor (inverse agonist) is reported as −25 ± 1.5%.

As for `Cc1nn(C)c(C)c1-c1cccc2c1CC[C@H](N(C)C)C2` [AS-19, reference compound], in the data set with C57BI/6J mice (C57BI/6J mice, DOI 1 mg/kg, 5-FPT up to 5.6 mg/kg, AS-19 10 mg/kg, DPAT 0.5 mg/kg), the “DOI-elicited HTR” value is on record as “suppressed the DOI HTR; also recorded: attenuated the HTR”. Besides, in the data set with C57BI/6J mice (data not shown), the “Locomotor behavior and serotonin syndrome seen in the DOI HTR assay” value is “neither (−)-DPAT, a 5-HT1A partial agonist, nor AS-19 affected locomotor behavior or caused obvious serotonin syndrome”.

As to `COc1cc(CC(C)N)c(OC)cc1I` (racemic) [DOI, (±)-2,5-dimethoxy-4-iodoamphetamine, reference compound], the inhibition constant Ki in [9] is above 1000 nM.

As to `C[C@H]1CNCCc2ccc(Cl)cc21` [lorcaserin], the “Activation of 5-HT2A receptors by reported selective 5-HT2C agonists” value at 5-HT2A [4] is on record as “also activate”. Besides, on 5-HT2B [5], the “Activation of 5-HT2B receptors by reported selective 5-HT2C agonists” value is “also activate”.

For `CN(C)[C@@H]1Cc2cc(Cl)c(O)cc2[C@@H](c2ccccc2)C1` (single isomer, unassigned) [Compound 7n, Trans-4-Phenyl-6-hydroxy-7-chloro-N,N-dimethyl-1,2,3,4-tetrahydronaphthalen-2-amine], the Ki at 5-HT2A [1] was found to be 60 ± 5.4 nM; on H1 it was 3 ± 1 nM; at 5-HT2B [2] it was 91 nM; on 5-HT2C [3], 23 ± 3 nM.

In the case of `COc1cc2c(cc1Cl)CC(N(C)C)CC2c1cccc(Cl)c1` (single isomer, unassigned) [Compound 7f], the inhibitory constant (Ki) at 5-HT2A [1] is 50 ± 20 nM; on H1, 18.9 ± 0.7 nM; on 5-HT2B [2], 56 nM; at 5-HT2C [3] it was 9 ± 2 nM.

With `COc1cc2c(cc1Cl)C[C@@H](N(C)C)C[C@H]2c1ccccc1` (single isomer, unassigned) [Compound 7c, Cis-4-Phenyl-6-methoxy-7-chloro-N,N-dimethyl-1,2,3,4-tetrahydronaphthalen-2-amine], the Ki is 2300 nM at 5-HT2A [1], above 1000 nM at H1, 2500 nM on 5-HT2B [2] and 1600 nM at 5-HT2C [3]. At H1, the “Lower H1 receptor affinity than (+)-cis-PAT 1c analog” value is on record as “about 10 fold”.

As to `CN(C)[C@@H]1Cc2cc(Cl)c(O)cc2[C@@H](c2ccccc2)C1` (single isomer, unassigned) [Compound 7m, Trans-4-Phenyl-6-hydroxy-7-chloro-N,N-dimethyl-1,2,3,4-tetrahydronaphthalen-2-amine], the inhibition constant (Ki) on 5-HT2A [1] came to 70 ± 2.6 nM; on H1, 109 ± 17 nM; at 5-HT2B [2], 1200 nM; on 5-HT2C [3], 1000 nM.
